Legend:
HFF = test: Cytotoxicity against HFF assessed as reduction in cell viability after 48 hrs by sulforhodamine B assay; assay type: cell-based; conditions: Homo sapiens
SK-MEL-28 = test: Cytotoxicity against human SK-MEL-28 cells assessed as reduction in cell viability after 48 hrs by sulforhodamine B assay; assay type: functional, cell-based; conditions: SK-MEL-28, 48 h

Row | Compound | IC50 (HFF) | IC50 (SK-MEL-28)
1 | CC(=O)N[C@H]1[C@H](O[C@H]2CC[C@]3(C)[C@H]4CC=C5[C@@H]6CC(C)(C)CC[C@]6(C(=O)O[C@@H]6OC[C@H](O)[C@H](O)[C@H]6O[C@@H]6O[C@@H](C)[C@H](O[C@@H]7O[C@@H](CO)[C@H](O)[C@H]7O)[C@@H](O[C@@H]7OC[C@@H](O)[C@H](O)[C@H]7O)[C@H]6O)[C@H](O)C[C@@]5(C)[C@]4(C)CC[C@H]3C2(C)C)O[C@H](CO)[C@@H](O[C@@H]2O[C@H](CO)[C@@H](O)[C@H](O)[C@H]2O)[C@@H]1O | 14.2 µM | 15 µM
2 | CC(=O)N[C@H]1[C@H](O[C@H]2CC[C@]3(C)[C@H]4CC=C5[C@@H]6CC(C)(C)CC[C@]6(C(=O)O[C@@H]6OC[C@H](O)[C@H](O)[C@H]6O[C@@H]6O[C@@H](C)[C@H](O[C@@H]7O[C@@H](COC(C)=O)[C@H](O)[C@H]7O)[C@@H](O[C@@H]7OC[C@@H](O)[C@H](O)[C@H]7O)[C@H]6O)[C@H](O)C[C@@]5(C)[C@]4(C)CC[C@H]3C2(C)C)O[C@H](CO)[C@@H](O[C@@H]2O[C@H](CO)[C@@H](O)[C@H](O)[C@H]2O)[C@@H]1O | 13.4 µM | 25 µM

— ChEMBL document CHEMBL4130467, “Isolation and Structural Characterization of Echinocystic Acid Triterpenoid Saponins from the Australian Medicinal and Food Plant Acacia ligulata” (J Nat Prod, 2017)
